Measurements: patent US8653138B2, “Calcium salts of compounds as anti-inflammatory, immunomodulatory and anti-proliferatory agents” (4SC MG, priority 2010, dated 2014)
≈ marks a conversion by molar mass, not a printed value. Counter-ions that a name gives are not always drawn.

How the values were obtained:
[1] = Aqueous solubility (OECD Guideline 105); type: physicochemical; conditions: water, 24 h at 23° C., HPLC-UV
Experimental: Aqueous solubilities of Vidofludimus free acid (2-(3-Fluoro-3′-methoxybiphenyl-4-ylcarbamoyl)-cyclopent-1-enecarboxylic acid), its potassium salt and its Calcium salt were examined. The principle of the method was based on the OECD Guideline for the testing of chemicals, 105 “Water Solubility”. 2 mg of the experimental compounds were weighed into Eppendorf vials of 1.5 ml. Subsequently, water was added to arrive at a concentration of 5 mg/ml. After preparation of the solubility samples they were incubated for 24 h at 23° C. under continuous shaking. Then the samples were centrifuged to separate the precipitate from the dissolved compound. The supernatants were transferred into labelled HPLC vials for quantification by HPLC-UV. Finally, these HPLC samples were analysed on the HPLC-UV System and their contents were calculated from the calibration curves, The concentration of compound in the supernatant equals its solubility in water. The following aqueous solubilities were found for Vidofludimus free acid and its potassium-and calcium salt: […]

[2] = Dynamic vapor sorption (DVS); type: physicochemical
Excerpt: DVS (SMS): Surface Measurement Systems Ltd. DVS-1 water vapour sorption analyzer. The sample is placed on a platinum sample pan and allowed to equilibrate at a given relative humidity (r.h.), usually 50% r.h. Then, a pre-defined humidity program was started with a scanning rate of 5% r.h. change per hour. First step: from 50% r.h. to 0% r.h, (in case of a possibly hydrate as starting material 50 to 95% r.h.), second step: from 0% to 95% r.h. (in case of a possibly hydrate as starting material 95 to 0% r.h.)

recombinant human DHODH = biological target: T1, recombinant human DHODH (Homo sapiens, UniProt Q02127); assay: Inhibition assay of DHODH activity, human enzyme; type: biochemical; conditions: class symbol (head prints μM, key in nM)
T1 construct: provided by Prof; M. Löffler, Marburg, Germany (gift, not a commercial vendor)
Experimental: The standard assay mixture contained 50 μM decyclo ubichinone, 100 μM dihydroorotate, 60 μM 2,6-dichloroindophenol, as well as 20 mU DHODH. The volume activity of the recombinant enzyme used was 30 U/ml. Measurements were conducted in 50 mM TrisHCl (150 mM KCl, 0.1% Triton X-100, pH 8.0) at 30° C. in a final volume of 1 ml. The components were mixed, and the reaction was started by adding dihydroorotate. The course of reaction was followed by spectrophotometrically measuring the decrease in absorption at 600 nm for 2 min.
Inhibitory studies were conducted in a standard assay with additional variable amounts of inhibitor.
These investigations were carried out with recombinant human as well as with recombinant murine DHODH provided by Prof. M. Löffler, Marburg, Germany [M. Löffler, Chem. Biol. Interact.

T1 sequence (Q02127 whole entry): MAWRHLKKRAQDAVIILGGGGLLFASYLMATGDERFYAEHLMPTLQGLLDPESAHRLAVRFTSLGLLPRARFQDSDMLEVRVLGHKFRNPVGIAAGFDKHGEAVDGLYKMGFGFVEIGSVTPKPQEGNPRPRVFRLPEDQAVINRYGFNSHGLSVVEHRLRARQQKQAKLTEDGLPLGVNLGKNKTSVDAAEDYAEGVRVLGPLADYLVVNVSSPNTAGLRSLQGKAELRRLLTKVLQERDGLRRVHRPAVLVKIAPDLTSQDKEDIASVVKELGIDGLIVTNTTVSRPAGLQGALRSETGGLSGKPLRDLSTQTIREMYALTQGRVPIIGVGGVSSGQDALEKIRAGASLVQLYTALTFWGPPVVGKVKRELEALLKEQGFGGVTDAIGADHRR

SMILES	IC50 (recombinant human DHODH) [µM]	also measured
COc1cccc(-c2ccc(NC(=O)C3=C(C(=O)O)CCC3)c(F)c2)c1 [Compound 26, 2-((3-fluoro-3′-methoxy-[1,1′-biphenyl]-4-yl)carbamoyl)cyclopent-1-enecarboxylic acid]		Solubility ([1]; listed as Vidofludimus free acid): 9.5 µg/mL (≈ 26.7 µM)
COc1cccc(-c2ccc(NC(=O)C3=C(C(=O)O)CCC3)c(F)c2)c1 [Potassium salt]		Solubility [1]: 4700 µg/mL
COc1cccc(-c2ccc(NC(=O)C3=C(C(=O)O)CCC3)c(F)c2)c1 [Calcium salt, calcium salt of 2-(3-Fluoro-3′-methoxy-biphenyl-4-ylcarbamoyl)-cyclopent-1-enecarboxylic acid]		Solubility [1]: 16.2 µg/mL; water uptake ([2]; at 95% r.h. (not reversible)): 0.4%; water uptake ([2]; at about 85% r.h., after desolvation): 0.3%
COc1ccccc1-c1ccc(NC(=O)C2=C(C(=O)O)CCC2)c(C)c1 [Compound 57, 2-((2′-methoxy-3-methyl-[1,1′-biphenyl]-4-yl)carbamoyl)cyclopent-1-enecarboxylic acid]	< 0.8	
COc1cc(-c2ccccc2F)ccc1NC(=O)C1=C(C(=O)O)CCC1 [Compound 36, 2-((2′-fluoro-3-methoxy-[1,1′-biphenyl]-4-yl)carbamoyl)cyclopent-1-enecarboxylic acid]	< 0.8	
N#Cc1cccc(-c2ccc(NC(=O)C3=C(C(=O)O)CCC3)cc2Cl)c1 [Compound 18, 2-((2-chloro-3′-cyano-[1,1′-biphenyl]-4-yl)carbamoyl)cyclopent-1-enecarboxylic acid]	< 0.8	
CCOc1cccc(-c2ccc(NC(=O)C3=C(C(=O)O)CCC3)c(F)c2)c1 [Compound 46, 2-((3′-ethoxy-3-fluoro-[1,1′-biphenyl]-4-yl)carbamoyl)cyclopent-1-enecarboxylic acid]	< 0.8	
COc1ccccc1-c1ccc(NC(=O)C2=C(C(=O)O)CCC2)c(Cl)c1 [Compound 53, 2-((3-chloro-2′-methoxy-[1,1′-biphenyl]-4-yl)carbamoyl)cyclopent-1-enecarboxylic acid]	< 0.8	
O=C(O)C1=C(C(=O)Nc2ccc(-c3cccc(OC(F)(F)F)c3)cc2)CCC1 [Compound 43, 2-((3′-(trifluoromethoxy)-[1,1′-biphenyl]-4-yl)carbamoyl)cyclopent-1-enecarboxylic acid]	< 0.8	
CCOc1ccccc1-c1cc(F)c(NC(=O)C2=C(C(=O)O)CCC2)c(F)c1 [Compound 62, 2-((2′-ethoxy-3,5-difluoro-[1,1′-biphenyl]-4-yl)carbamoyl)cyclopent-1-enecarboxylic acid]	< 0.8	
O=C(O)C1=C(C(=O)Nc2ccc(OCc3ccccc3C(F)(F)F)c(Cl)c2)CCC1 [Compound 68]	< 0.8	
COc1ccc(-c2ccc(NC(=O)C3=C(C(=O)O)CCC3)cc2C)cc1 [Compound 23, 2-((4′-methoxy-2-methyl-[1,1′-biphenyl]-4-yl)carbamoyl)cyclopent-1-enecarboxylic acid]	< 0.8	
Cc1cccc(Sc2ccc(NC(=O)C3=C(C(=O)O)CCC3)cc2)c1 [Compound 42, 2-((4-(m-tolylthio)phenyl)carbamoyl)cyclopent-1-enecarboxylic acid]	< 0.8	
CCOc1cccc(-c2cc(F)c(NC(=O)C3=C(C(=O)O)CCC3)c(F)c2)c1 [Compound 63, 2-((3′-ethoxy-3,5-difluoro-[1,1′-biphenyl]-4-yl)carbamoyl)cyclopent-1-enecarboxylic acid]	< 0.8	
COc1cc(-c2cccc(OC(F)(F)F)c2)ccc1NC(=O)C1=C(C(=O)O)CCC1 [Compound 35, 2-((3-methoxy-3′-(trifluoromethoxy)-[1,1′-biphenyl]-4-yl)carbamoyl)cyclopent-1-enecarboxylic acid]	< 0.8	
